In patent publication US20040063738A1, “Substituted heterocyclic phthalic acid diamide arthropodicides” (priority 2003, published 2004):

- melting point: 220 to 225 °C
Compound: CC(C)NC(=O)c1c(I)cccc1C(=O)Nc1ccc(OCC(F)(F)F)nc1 [Compound 1, 3-iodo-N^2-(1-methylethyl)-N^1-[6-(2,2,2-trifluoroethoxy)-3-pyridinyl]-1,2-benzenedicarboxamide]
